Measured values as given in patent US20220259585A1, “METHODS OF MAKING AND UTILIZING AMBER-OBLIGATED PHAGE DISPLAY LIBRARIES” (The Texas A&M University System, priority 2019, published 2022).
Numbered stars: 1 amine (or outer) side, 2 acyl side, 3 side chain; on linkers, the order of the positions; unused ones are H or OH. Square brackets hold non-standard residues; d marks the D form. Peptide text beside a SMILES is read from it. X1 = CCCC(=S)NCCCC[C@H](N[*:1])C(=O)[*:2]; Abu = CC[C@H](N)C(=O)O

Key:
MCF-7 cells = experiment: Western blot of α-tubulin K40 acetylation in MCF-7 cells (SIRT2 inhibition in cells); assay type: cell-based, human; conditions: 24 hours; for increase in acetylation level compared to S2P04 in vivo (in cells): cell line not given, cell cultures 50 μM; for α-tubulin acetylation (lysine 40): MCF-7 cells, 50 μM, versus vehicle control (0.25% DMF)
Method: (§1) Finally, Applicant tested the ability of S2P04, a selected peptide with intermediate potency, to inhibit SIRT2 in human embryonic kidney (HEK 293T) and breast cancer cells (MCF-7). […] Following incubation with the inhibitor, Applicant measured the acetylation level of lysine 40 of α-tubulin, a known deacetylation substrate of SIRT2.
MCF-7 (HTB-22) and HEK 293T (CRL-11268) cells purchased from American Type Culture Collection were grown in Dulbecco's Modified Eagle Medium (Invitrogen) containing 10% fetal bovine serum (Invitrogen) at 37° C. in an atmosphere of 5% CO2. Cells were seeded in a 6-well plate (Falcon 353046) at 5×10^5 viable cells/well, and grown for 24-48 hours to 60-70% confluence. […] After incubating with the inhibitors for 24 hours, the media was removed and the cells were washed twice with ice-cold PBS (Invitrogen). Cells were lysed on ice for 30 minutes in 100 μL of buffer containing 25 mM Tris pH 7.4, 150 mM NaCl, 10% glycerol, 4 mM MgCl2, 0.2 mM DTT, 1% NP-40, 25 mM nicotinamide, 5 μM trichostatin A, and 1:100 dilution of protease inhibitor cocktail (Sigma-Aldrich). The lysates were clarified by centrifugation, quantified by BCA assay (Pierce), and aliquots were stored at −80° C. Cell lysates (15 or 20 μg) were resolved by SDS-PAGE under denaturing conditions on a 12% acrylamide gel and then transferred to a 0.2 μm nitrocellulose membrane (Bio-Rad). α-tubulin acetylation (K40) and total α-tubulin were probed with primary antibody clones 6-11B-1, and B-5-1-2, respectively, which were purchased from Sigma-Aldrich (1:2,000 dilution). Primary antibodies were probed with HRP-conjugated goat anti-mouse IgG (Jackson ImmunoResearch Laboratories, Inc., 1:10,000 dilution). Chemiluminescence signals were generated with the SuperSignal™ […] Chemiluminescent substrate (ThermoFisher Scientific) and visualized with a Bio-Rad ChemiDoc XRS+ imaging system.

SIRT3 = biological target: T1, SIRT3 (Homo sapiens, UniProt Q9NTG7); experiment: Sirtuin inhibition assay with fluorogenic universal sirtuin substrate (SIRT3); assay type: biochemical; conditions: selectivity SIRT2 over SIRT3
T1 sequence (Q9NTG7 1-399): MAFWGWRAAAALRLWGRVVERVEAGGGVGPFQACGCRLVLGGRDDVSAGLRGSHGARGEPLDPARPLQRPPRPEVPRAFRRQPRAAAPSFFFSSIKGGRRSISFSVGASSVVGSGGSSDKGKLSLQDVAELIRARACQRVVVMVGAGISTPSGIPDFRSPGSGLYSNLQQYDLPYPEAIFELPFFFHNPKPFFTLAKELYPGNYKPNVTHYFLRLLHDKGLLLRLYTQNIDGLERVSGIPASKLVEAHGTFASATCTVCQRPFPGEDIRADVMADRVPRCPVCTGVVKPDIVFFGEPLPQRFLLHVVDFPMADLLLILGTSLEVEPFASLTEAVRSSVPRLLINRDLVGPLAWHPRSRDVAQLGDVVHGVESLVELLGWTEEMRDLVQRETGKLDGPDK
Method: Cell pellets were resuspended in 50 mL of lysis buffer (50 mM Tris pH 7.4, 150 mM NaCl, 0.1 mM PMSF, 1% Triton X-100) and incubated in the presence of 1 mg·mL^−1 of lysozyme for 30 minutes on ice. Following incubation, the resuspension was sonicated twice (1 s on 1 s off, 1 min total, 60% output) and clarified by centrifugation. To the clarified supernatant was added 3 mL of a 50% slurry of immobilized glutathione resin (Genscript) and the mixture was incubated at 4° C. for 30 minutes with end-over-end rotation. After 30 minutes the mixture was filtered through a disposable column, and the resin was washed with 50 mL of lysis buffer containing 0.1% Triton X-100. […] Enzyme concentration was determined from the absorbance at 280 nm using the calculated extinction coefficient of 80,790 M^−1·cm^−1.
Inhibition assays for SIRT1-3 were performed using a recently reported fluorogenic, universal sirtuin substrate (JPT Peptide Technologies, GmbH). […] Following incubation, the reaction was started with the addition of the substrate (5 μM) and product formation was monitored by measuring the fluorescence intensity every 20 seconds for 5 minutes (SIRT2) or 30 minutes (SIRT1 and SIRT3) in a BioTek Synergy H1 microplate reader at λEx=320 nm, λEm=408 nm (gain=130, read height=7 mm). […]

SIRT2 = biological target: T2, SIRT2 (Homo sapiens, UniProt Q8IXJ6); experiment: Sirtuin inhibition assay with fluorogenic universal sirtuin substrate (SIRT2); assay type: biochemical; conditions: for IC50: inhibition of SIRT2, mean ± standard deviation of two independent experiments
T2 sequence (Q8IXJ6 1-389): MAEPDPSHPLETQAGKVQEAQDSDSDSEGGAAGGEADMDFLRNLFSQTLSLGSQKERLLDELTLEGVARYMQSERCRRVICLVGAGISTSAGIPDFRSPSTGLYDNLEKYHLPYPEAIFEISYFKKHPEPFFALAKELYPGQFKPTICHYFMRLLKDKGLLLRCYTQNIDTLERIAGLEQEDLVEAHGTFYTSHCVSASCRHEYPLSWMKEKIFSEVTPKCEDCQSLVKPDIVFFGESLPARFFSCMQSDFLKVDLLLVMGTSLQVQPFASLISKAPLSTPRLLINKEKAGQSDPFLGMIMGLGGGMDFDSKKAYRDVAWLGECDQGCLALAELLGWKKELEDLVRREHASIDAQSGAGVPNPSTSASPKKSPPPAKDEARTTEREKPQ
Method: For inhibition assays, the eluted protein was loaded onto a HiPrep 26/10 desalting column (GE Healthcare) that had been pre-equilibrated with Source 15Q buffer A (20 mM Tris pH 8.0, 50 mM NaCl, 0.2 mM DTT, 10% glycerol). The desalted protein was concentrated by ultrafiltration to 1 mL (10 kDa MWCO) and applied to a 10 mL Source 15Q column (GE Healthcare) pre-equilibrated with Source 15Q buffer A. The column was washed with 3 CV (2 mL·min^−1) of Source 15Q buffer A and then eluted with a linear gradient from 0-60% Source 15Q buffer B (20 mM Tris pH 8.0, 1 M NaCl, 0.2 mM DTT, 10% glycerol; 1 mL·min^−1) over 5 CV. The fractions containing pure SIRT2 were concentrated and stored at −80° C. Enzyme concentration was determined from the absorbance at 280 nm using the calculated extinction coefficient of 32,470 M^−1·cm^−1.
Inhibition assays for SIRT1-3 were performed using a recently reported fluorogenic, universal sirtuin substrate (JPT Peptide Technologies, GmbH). The inhibition reactions were performed in 50 μL volumes at 37° C. in black, half-area, 96-well plates. The sirtuin enzyme (0.25 μM) was pre-incubated with different concentrations of the synthetic peptides (0.0064-50 μM for SIRT1 and SIRT2, 0.5-100 μM for SIRT3) or TB (0.16-150 μM for SIRT1-3) and 1 mM NAD^+ in assay buffer (20 mM Tris pH 7.8, 150 mM NaCl, 5 mM MgCl2, 1 mM DTT) for 15 minutes. Following incubation, the reaction was started with the addition of the substrate (5 μM) and product formation was monitored by measuring the fluorescence intensity every 20 seconds for 5 minutes (SIRT2) or 30 minutes (SIRT1 and SIRT3) in a BioTek Synergy H1 microplate reader at λEx=320 nm, λEm=408 nm (gain=130, read height=7 mm). Initial rates of product formation were determined by linear regression of the plot of fluorescence intensity versus time and normalized relative to 0% activity (max inhibitor) and 100% activity (no inhibitor) controls. IC50 values were determined by nonlinear regression of the plot of normalized initial rate versus inhibitor concentration using GraphPad Prism.

HEK 293T cells = experiment: Western blot of α-tubulin K40 acetylation in HEK 293T cells (SIRT2 inhibition in cells); assay type: cell-based, human; conditions: 50 μM, 24 hours, versus vehicle control (0.25% DMF)
Method: as §1
MCF-7 (HTB-22) and HEK 293T (CRL-11268) cells purchased from American Type Culture Collection were grown in Dulbecco's Modified Eagle Medium (Invitrogen) containing 10% fetal bovine serum (Invitrogen) at 37° C. in an atmosphere of 5% CO2. Cells were seeded in a 6-well plate (Falcon 353046) at 5×10^5 viable cells/well, and grown for 24-48 hours to 60-70% confluence. […] After incubating with the inhibitors for 24 hours, the media was removed and the cells were washed twice with ice-cold PBS (Invitrogen). Cells were lysed on ice for 30 minutes in 100 μL of buffer containing 25 mM Tris pH 7.4, 150 mM NaCl, 10% glycerol, 4 mM MgCl2, 0.2 mM DTT, 1% NP-40, 25 mM nicotinamide, 5 μM trichostatin A, and 1:100 dilution of protease inhibitor cocktail (Sigma-Aldrich). The lysates were clarified by centrifugation, quantified by BCA assay (Pierce), and aliquots were stored at −80° C. […]

SIRT1 = biological target: T3, SIRT1 (Homo sapiens, UniProt Q96EB6); experiment: Sirtuin inhibition assay with fluorogenic universal sirtuin substrate (SIRT1); assay type: biochemical; conditions: selectivity SIRT2 over SIRT1
T3 sequence (Q96EB6 1-747): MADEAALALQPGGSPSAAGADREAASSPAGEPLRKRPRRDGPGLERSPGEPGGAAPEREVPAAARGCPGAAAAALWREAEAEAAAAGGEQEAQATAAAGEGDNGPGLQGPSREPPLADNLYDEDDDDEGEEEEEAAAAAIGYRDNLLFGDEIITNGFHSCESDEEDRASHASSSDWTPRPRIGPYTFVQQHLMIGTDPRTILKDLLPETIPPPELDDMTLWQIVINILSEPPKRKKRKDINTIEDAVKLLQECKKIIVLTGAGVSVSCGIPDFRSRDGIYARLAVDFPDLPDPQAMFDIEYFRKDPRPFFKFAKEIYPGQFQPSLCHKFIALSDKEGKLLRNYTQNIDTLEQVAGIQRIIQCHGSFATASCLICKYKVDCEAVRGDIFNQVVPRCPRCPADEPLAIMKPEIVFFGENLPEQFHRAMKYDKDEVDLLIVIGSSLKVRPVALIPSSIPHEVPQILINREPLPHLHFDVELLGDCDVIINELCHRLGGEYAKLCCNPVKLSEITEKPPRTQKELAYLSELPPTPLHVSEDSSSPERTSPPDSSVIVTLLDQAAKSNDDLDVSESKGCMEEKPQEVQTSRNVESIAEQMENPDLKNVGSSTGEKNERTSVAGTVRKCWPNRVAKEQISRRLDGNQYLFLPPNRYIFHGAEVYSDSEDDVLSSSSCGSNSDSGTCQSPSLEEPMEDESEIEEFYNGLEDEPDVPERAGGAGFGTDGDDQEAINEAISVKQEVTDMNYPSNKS
Method: Cell pellets were resuspended in 50 mL of lysis buffer (50 mM Tris pH 8.0, 250 mM NaCl, 10 mM imidazole, 0.1 mM phenylmethanesulfonyl fluoride (PMSF), 1% Triton X-100) and incubated with 1 mg·mL^−1 lysozyme (chicken egg white) for 30 minutes on ice. Following incubation, the resuspension was sonicated twice (1 s on, 1 s off, 1 min total, 60% output) and clarified by centrifugation. […] After 30 minutes, the mixture was filtered through a disposable column and the resin was washed with 40 mL of lysis buffer containing 0.1% Triton X-100, followed by 40 mL of lysis buffer without Triton X-100. […] Enzyme concentration was determined from the absorbance at 280 nm using the calculated extinction coefficient of 40,340 M^−1·cm^−1.
Inhibition assays for SIRT1-3 were performed using a recently reported fluorogenic, universal sirtuin substrate (JPT Peptide Technologies, GmbH). […] Following incubation, the reaction was started with the addition of the substrate (5 μM) and product formation was monitored by measuring the fluorescence intensity every 20 seconds for 5 minutes (SIRT2) or 30 minutes (SIRT1 and SIRT3) in a BioTek Synergy H1 microplate reader at λEx=320 nm, λEm=408 nm (gain=130, read height=7 mm). […] IC50 values were determined by nonlinear regression of the plot of normalized initial rate versus inhibitor concentration using GraphPad Prism.

SMILES	increase in acetylation level compared to S2P04 in vivo (in cells) (MCF-7 cells)	α-tubulin acetylation (lysine 40) (MCF-7 cells)	α-tubulin acetylation (lysine 40) (HEK 293T cells)	IC50 (SIRT2) [nM]	further results
CCCC(=S)NCCCC[C@H](NC(=O)[C@@H](NC(=O)[C@@H](NC(=O)[C@H](CS)NC(C)=O)[C@@H](C)O)C(C)C)C(=O)N[C@H](C(N)=O)[C@@H](C)CC [Ac-S2P04-5, Ac-CTVXI-NH2] (Ac-CTV[X1]I-NH2)	neither led to a greater increase in acetylation level compared to S2P04				
CCCC(=S)NCCCC[C@H](NC(=O)[C@@H](NC(=O)[C@@H](NC(=O)[C@H](CS)NC(=O)[C@@H](N)[C@@H](C)O)[C@@H](C)O)C(C)C)C(=O)N[C@H](C(=O)NCC(N)=O)[C@@H](C)CC [Compound S2P04, NH2-TCTVXIG-NH2] (H-TCTV[X1]IG-NH2)		increase in α-tubulin acetylation	increase in α-tubulin acetylation		fold more potent inhibition of SIRT2 than SIRT3 (SIRT3): 152 fold; fold more potent than TB (SIRT2; for each enzyme (SIRT1, SIRT2, SIRT3)): at least 33 fold; fold more potent inhibition of SIRT2 than SIRT1 (SIRT1): 2.7 fold
CCCC(=S)NCCCC[C@H](NC(=O)[C@@H](NC(=O)[C@@H](NC(=O)[C@@H](N)CS)[C@@H](C)O)C(C)C)C(=O)N[C@H](C(N)=O)[C@@H](C)CC [Compound S2P04-5] (H-CTV[X1]I-NH2; N-terminus and C-terminus assumed)				136 ± 29	
CCCC(=S)NCCCC[C@H](NC(=O)[C@@H](NC(=O)[C@@H](NC(=O)[C@@H](N)CC)[C@@H](C)O)C(C)C)C(=O)N[C@H](C(N)=O)[C@@H](C)CC [S2P04(Abu)-5, NH2-ZTVXI-NH2] (H-[Abu]TV[X1]I-NH2)	neither led to a greater increase in acetylation level compared to S2P04				
CCCC(=S)NCCCC[C@H](NC(=O)OCc1ccccc1)C(=O)Nc1ccccc1 [TB, reference compound]		increase in α-tubulin acetylation compared to the control	No increase in α-tubulin acetylation	3110	
